Test results reported in patent US7537803B2, “Polymer coating/encapsulation of nanoparticles using a supercritical antisolvent process” (New Jersey Institute of Technology, priority 2003, dated 2009).

Test: Dissolution of hydrocortisone in DCM of the coating suspension
Assay type: physicochemical
Conditions: suspension in PLGA/dichloromethane for SAS coating
Excerpt: An exemplary processing protocol according to the present disclosure is as follows. The precipitation chamber is first charged with SC CO2. After the predetermined operating conditions (temperature and pressure) are reached, a steady flow of CO2 is established by adjusting the metering valve and the metering pump. The flow rate of CO2 was usually less than 3.0 standard liters per minute (SLPM). PLGA and hydrocortisone (HC) are then weighed and mixed into dichloromethane (DCM) to produce a suspension with the desired polymer concentration and PLGA to HC ratio. The suspension-so-produced is then injected at a flow rate of 0.8 ml/min into the high pressure chamber through the capillary nozzle by using an HPLC pump (Beckman, 110B) for about 10 minutes. After spraying, fresh CO2 is supplied continuously to purge the chamber with about 1 equivalent volume of CO2 in order to remove any remaining dichloromethane. After purging, the precipitation chamber is slowly depressurized and the coated drug particles collected for characterization.
Initially, reference is made to FIG. 18 wherein SEM images of the untreated hydrocortisone particles employed in the experimental studies are shown. Hydrocortisone is seen to be in crystal form with defined facets and sharp edges. […] The coated particles have a different shape (morphology) and no clear sharp edges when compared with the uncoated drug particles. […]

hydrocortisone dissolved in DCM, share of the total: about 17%
SMILES: C[C@]12CCC(=O)C=C1CC[C@@H]1[C@@H]2[C@@H](O)C[C@@]2(C)[C@H]1CC[C@]2(O)C(=O)CO [hydrocortisone, Hydrocortisone]
